What was measured:
[1] = molecular target: T1, BRD4 bromodomain domain I [BRD4(1)] (Homo sapiens, UniProt O60885); assay: BRD4 bromodomain domain 1 inhibition assay (TR-FRET); assay type: binding; settings: screening concentration 10 μM
T1 construct: BRD4 bromodomain domain I [BRD4(1)]; purchased Cayman Chemicals
Procedure, shortened: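 0.5% DMSO, in triplicate, using Cayman BRD4(1) TR-FRET protocol with slight modification. 670/620 nm ratio normalized to 10 μM JQ1, with DMSO control set as 0% inhibition.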

ABL or ARG = assay: Probe-based (AX9989) kinase profiling in Jurkat lysate: ABL or ARG; assay type: binding
Procedure, shortened: (§1)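 Percent inhibition was derived from reduced LC/MS fragment intensities of probe-labeled peptides relative to compound-free controls. Before labeling with 5 μM AX9989, Mn2+-supplemented (20 mM) Jurkat lysate was exposed to compound for 15 min at room temperature.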

AurA = molecular target: T2, AurA (Homo sapiens, UniProt O14965); assay: Probe-based (AX9989) kinase profiling in Jurkat lysate: AurA; assay type: binding; settings: read-out: Kinase inhibition % at indicated screening concentration: AurA; for inhibition at 0.1 µM: screening concentration 0.1 μM; for inhibition at 1 µM: screening concentration 1.0 μM
T2 construct: screened for activity against several kinases in Jurkat cells; endogenous in cells; host or cells: Jurkat cell lysate
T2 sequence (O14965 1-403): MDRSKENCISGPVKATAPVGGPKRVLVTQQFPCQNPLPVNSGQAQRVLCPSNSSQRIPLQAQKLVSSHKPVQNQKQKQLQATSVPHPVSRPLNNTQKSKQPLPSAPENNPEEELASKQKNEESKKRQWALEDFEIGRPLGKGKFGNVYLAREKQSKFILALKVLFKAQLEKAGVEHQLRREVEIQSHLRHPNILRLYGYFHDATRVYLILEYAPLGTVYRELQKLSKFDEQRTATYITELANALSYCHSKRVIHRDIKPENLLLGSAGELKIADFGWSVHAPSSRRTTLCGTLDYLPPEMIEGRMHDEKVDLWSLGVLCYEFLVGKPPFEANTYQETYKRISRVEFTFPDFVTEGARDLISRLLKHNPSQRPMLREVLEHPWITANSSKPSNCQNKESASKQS
Procedure, shortened: as §1

ERK5 = molecular target: T3, ERK5 (Homo sapiens, UniProt Q13164); assay: Probe-based (AX9989 acyl phosphate ATP probe) kinase profiling in Jurkat lysate: ERK5; assay type: binding; settings: for IC50: calculated from percent inhibition of AX9989 labeling and the screening concentration, Jurkat lysate; for inhibition at 0.1 µM: screening concentration 0.1 μM; for inhibition at 0.1 µM / inhibition at 1 µM: read-out: Kinase inhibition % at indicated screening concentration: ERK5; for inhibition at 1 µM: screening concentration 1.0 μM
T3 construct: screened for activity against several kinases in Jurkat cells; endogenous in cells; host or cells: Jurkat cell lysate
Procedure, shortened: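 ERK5 IC50 values came from percent inhibition at the screening concentration, measured as loss of LC/MS signal of probe-labelled active-site peptides. Compound was added for 15 min at room temperature to Jurkat lysate (5 mg/ml, 20 mM MnCl2) before labelling with AX9989 ATP acyl phosphate probe at 5 μM.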

AMPKa1 or AMPKa2 = assay: Probe-based (AX9989) kinase profiling in Jurkat lysate: AMPKa1 or AMPKa2; assay type: binding
Procedure, shortened: as §1

human PBMCs = assay: Human PBMC TNF-α response to endotoxin (ELISA); assay type: cell-based; settings: 0.1 μg/ml LPS 16 h, read-out: EC50 for the inhibition of the human PBMC TNF-α response to endotoxin, ave. ± S.D.
Procedure, shortened: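 PBMCs at 2e6 cells/ml in RPMI 1640 with 10% charcoal-dextran-treated FBS were pre-treated 1 h at 37 °C with compound (4-point 1:5 dilution from 10 μM). Stimulation with 0.1 μg/ml E. coli 0111:B4 LPS for 16 h; TNF-α measured by ELISA (A450) in 25-fold diluted supernatant.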

T3 sequence (Q13164 whole entry): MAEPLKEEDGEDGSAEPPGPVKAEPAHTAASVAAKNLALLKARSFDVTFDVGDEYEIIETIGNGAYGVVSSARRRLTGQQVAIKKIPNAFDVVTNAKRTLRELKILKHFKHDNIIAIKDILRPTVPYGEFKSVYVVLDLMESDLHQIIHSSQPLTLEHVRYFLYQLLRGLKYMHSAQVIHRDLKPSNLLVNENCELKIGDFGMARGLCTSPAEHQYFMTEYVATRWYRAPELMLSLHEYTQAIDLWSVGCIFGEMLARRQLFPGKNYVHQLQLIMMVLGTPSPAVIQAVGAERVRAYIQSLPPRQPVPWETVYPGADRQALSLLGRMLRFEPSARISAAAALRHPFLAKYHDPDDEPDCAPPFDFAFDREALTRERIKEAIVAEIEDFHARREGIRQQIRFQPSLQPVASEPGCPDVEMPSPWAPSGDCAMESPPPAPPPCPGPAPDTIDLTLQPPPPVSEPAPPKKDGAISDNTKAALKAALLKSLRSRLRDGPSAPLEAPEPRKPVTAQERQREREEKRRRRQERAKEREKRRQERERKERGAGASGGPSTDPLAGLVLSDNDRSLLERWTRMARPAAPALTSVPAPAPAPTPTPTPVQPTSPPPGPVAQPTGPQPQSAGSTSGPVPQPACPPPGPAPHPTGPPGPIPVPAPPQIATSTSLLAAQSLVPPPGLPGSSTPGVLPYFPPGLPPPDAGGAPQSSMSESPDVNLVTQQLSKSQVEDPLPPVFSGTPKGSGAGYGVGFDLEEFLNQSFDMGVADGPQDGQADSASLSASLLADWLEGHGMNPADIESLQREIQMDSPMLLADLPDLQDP

Row | SMILES | inhibition at 10 µM [1] | Kinase inhibition % at indicated screening concentration: ABL or ARG (ABL or ARG; screening concentration 0.1 μM) | inhibition at 0.1 µM (AurA) | IC50 (ERK5) | inhibition at 0.1 µM (ERK5) | Kinase inhibition % at indicated screening concentration: AMPKa1 or AMPKa2 (AMPKa1 or AMPKa2; screening concentration 0.1 μM) | Kinase inhibition % at indicated screening concentration: ABL or ARG (ABL or ARG; screening concentration 1.0 μM) | inhibition at 1 µM (AurA) | inhibition at 1 µM (ERK5) | Kinase inhibition % at indicated screening concentration: AMPKa1 or AMPKa2 (AMPKa1 or AMPKa2; screening concentration 1.0 μM) | EC50 (human PBMCs)
1 | CCOc1cc(C(=O)N2CCN(C3CC3)CC2)ccc1Nc1cc2c(cn1)N(C)C(=O)c1ccccc1N2C [Compound 39] | < 70% | E (E is ≦35%) | ≤ 35% | ≤ 0.05 µM | 50 to 75% | E (E is ≦35%) | – | – | – | – | 1.77 µM
2 | CCOc1cc(C(=O)N2CCCCC2)ccc1Nc1cc2c(cn1)N(C)C(=O)c1ccccc1N2C [Compound 12] | 70 to 85% | – | – | 0.101 to 0.5 µM | – | – | E (E is ≦35%) | ≤ 35% | 75 to 90% | E (E is ≦35%) | 0.63 µM
3 | CCOc1cc(C(=O)N2CCC(NC)C2)ccc1Nc1cc2c(cn1)N(C)C(=O)c1occc1N2C (stereo not shown) [Compound 43] | > 85% | E (E is ≦35%) | ≤ 35% | ≤ 0.05 µM | > 90% | E (E is ≦35%) | – | – | – | – | 1.48 µM
4 | C=CCN1CCN(C(=O)c2ccc(Nc3cc4c(cn3)N(C)C(=O)c3ccccc3N4C)c(OCC)c2)CC1 [Compound 21] | 70 to 85% | E (E is ≦35%) | ≤ 35% | ≤ 0.05 µM | 75 to 90% | E (E is ≦35%) | – | – | – | – | 1.22 µM
5 | CCOc1cc(C(=O)N(C)CCn2ccnc2)ccc1Nc1cc2c(cn1)N(C)C(=O)c1ccccc1N2C [Compound 30] | 70 to 85% | E (E is ≦35%) | ≤ 35% | ≤ 0.05 µM | 75 to 90% | E (E is ≦35%) | – | – | – | – | 1.26 ± 0.17 µM
6 | CCOc1cc(C(=O)N2CC[C@@H](N3CCCC3)C2)ccc1Nc1cc2c(cn1)N(C)C(=O)c1ccccc1N2C [Compound 24] | > 85% | E (E is ≦35%) | ≤ 35% | ≤ 0.05 µM | > 90% | E (E is ≦35%) | – | – | – | – | 0.91 µM
7 | CN1C(=O)c2ccccc2N(C)c2cc(N[C@H]3CC[C@H](NC4=NCCO4)CC3)ncc21 [Compound 45] | < 70% | – | – | 0.101 to 0.5 µM | – | – | E (E is ≦35%) | ≤ 35% | 75 to 90% | E (E is ≦35%) | 1.58 µM
8 | CCOc1cc(C(=O)N2CC[C@@H](N(C)C)C2)ccc1Nc1cc2c(cn1)N(C)C(=O)c1occc1N2C [Compound 25] | > 85% | E (E is ≦35%) | ≤ 35% | ≤ 0.05 µM | > 90% | E (E is ≦35%) | – | – | – | – | 1.17 ± 0.07 µM
9 | CCOc1cc(C(=O)N2CCNC[C@@H]2C)ccc1Nc1cc2c(cn1)N(C)C(=O)c1ccccc1N2C [Compound 31] | > 85% | E (E is ≦35%) | ≤ 35% | ≤ 0.05 µM | 75 to 90% | E (E is ≦35%) | – | – | – | – | 1.25 µM

Second part, led by results:

Row | inhibition at 10 µM [1] | Kinase inhibition % at indicated screening concentration: ABL or ARG (ABL or ARG; screening concentration 0.1 μM) | inhibition at 0.1 µM (AurA) | IC50 (ERK5) | inhibition at 0.1 µM (ERK5) | Kinase inhibition % at indicated screening concentration: AMPKa1 or AMPKa2 (AMPKa1 or AMPKa2; screening concentration 0.1 μM) | Kinase inhibition % at indicated screening concentration: ABL or ARG (ABL or ARG; screening concentration 1.0 μM) | inhibition at 1 µM (AurA) | inhibition at 1 µM (ERK5) | Kinase inhibition % at indicated screening concentration: AMPKa1 or AMPKa2 (AMPKa1 or AMPKa2; screening concentration 1.0 μM) | SMILES | EC50 (human PBMCs)
10 | 70 to 85% | E (E is ≦35%) | ≤ 35% | ≤ 0.05 µM | 75 to 90% | E (E is ≦35%) | – | – | – | – | CCOc1cc(C(=O)N2CCN(CCO)CC2)ccc1Nc1cc2c(cn1)N(C)C(=O)c1ccccc1N2C [Compound 37] | 0.96 µM
11 | < 70% | – | – | ≤ 0.05 µM | – | – | E (E is ≦35%) | ≤ 35% | > 90% | E (E is ≦35%) | CCOc1cc(C(=O)N2CCC(N3CCN(C)CC3)CC2)ccc1Nc1cc2c(cn1)N(C)C(=O)c1ncccc1N2C [Compound 40] | > 10 µM
12 | > 85% | – | – | ≤ 0.05 µM | – | – | E (E is ≦35%) | ≤ 35% | > 90% | E (E is ≦35%) | CCOc1cc(C(=O)N(C)CCN(CC)CC)ccc1Nc1cc2c(cn1)N(C)C(=O)c1ccccc1N2C [Compound 42] | 0.65 µM
13 | > 85% | E (E is ≦35%) | ≤ 35% | ≤ 0.05 µM | 75 to 90% | E (E is ≦35%) | – | – | – | – | CCOc1cc(C(=O)N2CC[C@H](O)C2)ccc1Nc1cc2c(cn1)N(C)C(=O)c1occc1N2C [Compound 17] | 2.23 µM
14 | 70 to 85% | – | – | 0.101 to 0.5 µM | – | – | E (E is ≦35%) | ≤ 35% | 75 to 90% | E (E is ≦35%) | CCOc1cc(C(=O)NCCN2CCN(C)CC2)ccc1Nc1cc2c(cn1)N(C)C(=O)c1ccccc1N2C [Compound 44] | 0.59 µM
15 | > 85% | E (E is ≦35%) | ≤ 35% | ≤ 0.05 µM | 75 to 90% | E (E is ≦35%) | – | – | – | – | CCOc1cc(C(=O)N2CCC(N3CCCC3)C2)ccc1Nc1cc2c(cn1)N(C)C(=O)c1occc1N2C (stereo not shown) [Compound 15] | 0.49 ± 0.03 µM
16 | > 85% | E (E is ≦35%) | ≤ 35% | 0.05 to 0.1 µM | > 90% | E (E is ≦35%) | – | – | – | – | CCOc1cc(C(=O)N(C)CCN2CCCC2)ccc1Nc1cc2c(cn1)N(C)C(=O)c1ccccc1N2C [Compound 28] | 0.48 µM

From patent publication US20170008888A1 (KYORIN PHARMACEUTICAL CO., LTD., priority 2014, published 2017)
